Values quoted from earlier work, collected in US20050100594A1, “Pharmaceutical formulation containing muscle relaxant and COX-II inhibitor” (priority 2003, published 2005).
Structures can show the parent of a compound that is named as a salt.

Test system: skeletal muscle fibers, neuromuscular junction, monosynaptic spinal reflexes
Conditions: animal models

Compound: Clc1ccc2nsnc2c1NC1=NCCN1 [Tizanidine, 5-chloro-4-(2-imidazolin-2-ylamino)-2,1,3-benzothiodiazole hydrochloride]
- effect on monosynaptic spinal reflexes: no major effect
- effect on skeletal muscle fibers or the neuromuscular junction: no direct effect
